± gives the expanded uncertainty stated by the source.
Conditions: Liquid, Vibrating wire viscometry

Work on Cc1ccccc1 [toluene] yielded a viscosity (293.15 K, 100 kPa) of 0.5907 ± 0.01 mPa·s, a viscosity (293.15 K, 1000 kPa) of 0.5928 ± 0.01 mPa·s and a viscosity (293.15 K, 5000 kPa) of 0.6152 ± 0.011 mPa·s. It also gave a viscosity (293.15 K, 10000 kPa) of 0.6387 ± 0.011 mPa·s, a viscosity (293.15 K, 20000 kPa) of 0.6881 ± 0.012 mPa·s and a viscosity (293.15 K, 30000 kPa) of 0.7354 ± 0.013 mPa·s. It also gave a viscosity (293.15 K, 40000 kPa) of 0.7913 ± 0.013 mPa·s, a viscosity (293.15 K, 50000 kPa) of 0.8532 ± 0.014 mPa·s and a viscosity (293.15 K, 60000 kPa) of 0.908 ± 0.015 mPa·s. It also gave a viscosity (293.15 K, 70000 kPa) of 0.9632 ± 0.016 mPa·s, a viscosity (293.15 K, 80000 kPa) of 1.022 ± 0.017 mPa·s and a viscosity (293.15 K, 100000 kPa) of 1.149 ± 0.019 mPa·s. It also gave a viscosity (293.15 K, 120000 kPa) of 1.287 ± 0.021 mPa·s, a viscosity (293.15 K, 140000 kPa) of 1.456 ± 0.024 mPa·s and a viscosity (298.15 K, 100 kPa) of 0.5555 ± 0.01 mPa·s. It also gave a viscosity (298.15 K, 1000 kPa) of 0.5603 ± 0.01 mPa·s, a viscosity (298.15 K, 5000 kPa) of 0.5772 ± 0.01 mPa·s and a viscosity (298.15 K, 10000 kPa) of 0.6006 ± 0.011 mPa·s. The viscosity (298.15 K, 20000 kPa) was 0.6478 ± 0.011 mPa·s, the viscosity (298.15 K, 30000 kPa) was 0.692 ± 0.012 mPa·s and the viscosity (298.15 K, 40000 kPa) was 0.7442 ± 0.013 mPa·s. The viscosity (298.15 K, 50000 kPa) was 0.7983 ± 0.014 mPa·s, the viscosity (298.15 K, 60000 kPa) was 0.8463 ± 0.014 mPa·s and the viscosity (298.15 K, 70000 kPa) was 0.9027 ± 0.015 mPa·s. For the same compound, the viscosity (298.15 K, 80000 kPa) was 0.9625 ± 0.016 mPa·s, the viscosity (298.15 K, 100000 kPa) was 1.081 ± 0.018 mPa·s and the viscosity (298.15 K, 120000 kPa) was 1.211 ± 0.02 mPa·s. The viscosity (298.15 K, 140000 kPa) was 1.349 ± 0.022 mPa·s, the viscosity (313.15 K, 100 kPa) was 0.469 ± 0.0088 mPa·s and the viscosity (313.15 K, 1000 kPa) was 0.4746 ± 0.0088 mPa·s. For the same compound, the viscosity (313.15 K, 5000 kPa) was 0.4885 ± 0.009 mPa·s, the viscosity (313.15 K, 10000 kPa) was 0.5046 ± 0.0093 mPa·s and the viscosity (313.15 K, 20000 kPa) was 0.5496 ± 0.0099 mPa·s. The viscosity (313.15 K, 30000 kPa) was 0.5914 ± 0.01 mPa·s, the viscosity (313.15 K, 40000 kPa) was 0.6239 ± 0.011 mPa·s and the viscosity (313.15 K, 50000 kPa) was 0.6704 ± 0.012 mPa·s. It also gave a viscosity (313.15 K, 60000 kPa) of 0.7133 ± 0.012 mPa·s, a viscosity (313.15 K, 70000 kPa) of 0.7572 ± 0.013 mPa·s and a viscosity (313.15 K, 80000 kPa) of 0.8098 ± 0.014 mPa·s. The viscosity (313.15 K, 100000 kPa) was 0.9082 ± 0.015 mPa·s, the viscosity (313.15 K, 120000 kPa) was 1.009 ± 0.017 mPa·s and the viscosity (313.15 K, 140000 kPa) was 1.128 ± 0.019 mPa·s. It also gave a viscosity (323.15 K, 100 kPa) of 0.4214 ± 0.0081 mPa·s, a viscosity (323.15 K, 1000 kPa) of 0.4238 ± 0.0081 mPa·s and a viscosity (323.15 K, 5000 kPa) of 0.4385 ± 0.0083 mPa·s. It also gave a viscosity (323.15 K, 10000 kPa) of 0.4551 ± 0.0086 mPa·s, a viscosity (323.15 K, 20000 kPa) of 0.4877 ± 0.009 mPa·s and a viscosity (323.15 K, 30000 kPa) of 0.5293 ± 0.0096 mPa·s. For the same compound, the viscosity (323.15 K, 40000 kPa) was 0.565 ± 0.01 mPa·s, the viscosity (323.15 K, 50000 kPa) was 0.6021 ± 0.011 mPa·s and the viscosity (323.15 K, 60000 kPa) was 0.6377 ± 0.011 mPa·s. For the same compound, the viscosity (323.15 K, 70000 kPa) was 0.6789 ± 0.012 mPa·s, the viscosity (323.15 K, 80000 kPa) was 0.7322 ± 0.013 mPa·s and the viscosity (323.15 K, 100000 kPa) was 0.809 ± 0.014 mPa·s. It also gave a viscosity (323.15 K, 120000 kPa) of 0.9034 ± 0.015 mPa·s, a viscosity (323.15 K, 140000 kPa) of 1.004 ± 0.017 mPa·s and a viscosity (333.15 K, 100 kPa) of 0.3804 ± 0.0075 mPa·s. The viscosity (333.15 K, 1000 kPa) was 0.3856 ± 0.0076 mPa·s, the viscosity (333.15 K, 5000 kPa) was 0.3986 ± 0.0078 mPa·s and the viscosity (333.15 K, 10000 kPa) was 0.4153 ± 0.008 mPa·s. The viscosity (333.15 K, 20000 kPa) was 0.4495 ± 0.0085 mPa·s, the viscosity (333.15 K, 30000 kPa) was 0.4794 ± 0.0089 mPa·s and the viscosity (333.15 K, 40000 kPa) was 0.5135 ± 0.0094 mPa·s. It also gave a viscosity (333.15 K, 50000 kPa) of 0.5485 ± 0.0099 mPa·s, a viscosity (333.15 K, 60000 kPa) of 0.5835 ± 0.01 mPa·s and a viscosity (333.15 K, 70000 kPa) of 0.6187 ± 0.011 mPa·s. For the same compound, the viscosity (333.15 K, 80000 kPa) was 0.6579 ± 0.011 mPa·s, the viscosity (333.15 K, 100000 kPa) was 0.7353 ± 0.013 mPa·s and the viscosity (333.15 K, 120000 kPa) was 0.8176 ± 0.014 mPa·s. It also gave a viscosity (333.15 K, 140000 kPa) of 0.9111 ± 0.015 mPa·s, a viscosity (348.15 K, 100 kPa) of 0.3302 ± 0.0068 mPa·s and a viscosity (348.15 K, 1000 kPa) of 0.3361 ± 0.0069 mPa·s. For the same compound, the viscosity (348.15 K, 5000 kPa) was 0.3457 ± 0.007 mPa·s, the viscosity (348.15 K, 10000 kPa) was 0.3588 ± 0.0072 mPa·s and the viscosity (348.15 K, 20000 kPa) was 0.3876 ± 0.0076 mPa·s. The viscosity (348.15 K, 30000 kPa) was 0.418 ± 0.008 mPa·s, the viscosity (348.15 K, 40000 kPa) was 0.4485 ± 0.0085 mPa·s and the viscosity (348.15 K, 50000 kPa) was 0.4795 ± 0.0089 mPa·s. For the same compound, the viscosity (348.15 K, 60000 kPa) was 0.5089 ± 0.0093 mPa·s, the viscosity (348.15 K, 70000 kPa) was 0.5441 ± 0.0098 mPa·s and the viscosity (348.15 K, 80000 kPa) was 0.5721 ± 0.01 mPa·s. The viscosity (348.15 K, 100000 kPa) was 0.6407 ± 0.011 mPa·s, the viscosity (348.15 K, 120000 kPa) was 0.7088 ± 0.012 mPa·s and the viscosity (348.15 K, 140000 kPa) was 0.7836 ± 0.013 mPa·s. It also gave a viscosity (353.15 K, 100 kPa) of 0.3163 ± 0.0067 mPa·s, a viscosity (353.15 K, 1000 kPa) of 0.3177 ± 0.0067 mPa·s and a viscosity (353.15 K, 5000 kPa) of 0.3319 ± 0.0069 mPa·s. It also gave a viscosity (353.15 K, 10000 kPa) of 0.3449 ± 0.007 mPa·s, a viscosity (353.15 K, 20000 kPa) of 0.3701 ± 0.0074 mPa·s and a viscosity (353.15 K, 30000 kPa) of 0.4006 ± 0.0078 mPa·s. It also gave a viscosity (353.15 K, 40000 kPa) of 0.4291 ± 0.0082 mPa·s, a viscosity (353.15 K, 50000 kPa) of 0.462 ± 0.0087 mPa·s and a viscosity (353.15 K, 60000 kPa) of 0.4919 ± 0.0091 mPa·s. It also gave a viscosity (353.15 K, 70000 kPa) of 0.5176 ± 0.0095 mPa·s, a viscosity (353.15 K, 80000 kPa) of 0.5478 ± 0.0099 mPa·s and a viscosity (353.15 K, 100000 kPa) of 0.6113 ± 0.011 mPa·s. The viscosity (353.15 K, 120000 kPa) was 0.6825 ± 0.012 mPa·s, the viscosity (353.15 K, 140000 kPa) was 0.755 ± 0.013 mPa·s and the viscosity (373.15 K, 100 kPa) was 0.2667 ± 0.006 mPa·s. For the same compound, the viscosity (373.15 K, 1000 kPa) was 0.2671 ± 0.006 mPa·s, the viscosity (373.15 K, 5000 kPa) was 0.2782 ± 0.0062 mPa·s and the viscosity (373.15 K, 10000 kPa) was 0.2893 ± 0.0063 mPa·s. It also gave a viscosity (373.15 K, 20000 kPa) of 0.315 ± 0.0066 mPa·s, a viscosity (373.15 K, 30000 kPa) of 0.3401 ± 0.007 mPa·s and a viscosity (373.15 K, 40000 kPa) of 0.3643 ± 0.0073 mPa·s. For the same compound, the viscosity (373.15 K, 50000 kPa) was 0.3876 ± 0.0076 mPa·s, the viscosity (373.15 K, 60000 kPa) was 0.4138 ± 0.008 mPa·s and the viscosity (373.15 K, 70000 kPa) was 0.4372 ± 0.0083 mPa·s. It also gave a viscosity (373.15 K, 80000 kPa) of 0.4649 ± 0.0087 mPa·s and a viscosity (373.15 K, 100000 kPa) of 0.5193 ± 0.0095 mPa·s.
